Values quoted from earlier work, collected in patent US20100137843A1, “Delivery devices for modulating inflammation” (Searete LLC, a limited liability corporation of the State …, priority 2008, published 2010).
One block for each molecule: values may come before it.

Assays:
[1] = single agent, 400 mg infused over one hour
[2] = tested on: Src family kinase; conditions: also its dependent cellular responses
[3] = tested on: proteasome; conditions: cultured breast cancer cells; copper-bound
[4] = tested on: aldehyde dehydrogenase; conditions: without toxicity
[5] = target: Toll-like receptor 4 (Homo sapiens, UniProt O00206)
[6] = tested on: Epha1; conditions: at nanomolar concentrations

Chain of Toll-like receptor 4 (O00206 24-839, species assumed): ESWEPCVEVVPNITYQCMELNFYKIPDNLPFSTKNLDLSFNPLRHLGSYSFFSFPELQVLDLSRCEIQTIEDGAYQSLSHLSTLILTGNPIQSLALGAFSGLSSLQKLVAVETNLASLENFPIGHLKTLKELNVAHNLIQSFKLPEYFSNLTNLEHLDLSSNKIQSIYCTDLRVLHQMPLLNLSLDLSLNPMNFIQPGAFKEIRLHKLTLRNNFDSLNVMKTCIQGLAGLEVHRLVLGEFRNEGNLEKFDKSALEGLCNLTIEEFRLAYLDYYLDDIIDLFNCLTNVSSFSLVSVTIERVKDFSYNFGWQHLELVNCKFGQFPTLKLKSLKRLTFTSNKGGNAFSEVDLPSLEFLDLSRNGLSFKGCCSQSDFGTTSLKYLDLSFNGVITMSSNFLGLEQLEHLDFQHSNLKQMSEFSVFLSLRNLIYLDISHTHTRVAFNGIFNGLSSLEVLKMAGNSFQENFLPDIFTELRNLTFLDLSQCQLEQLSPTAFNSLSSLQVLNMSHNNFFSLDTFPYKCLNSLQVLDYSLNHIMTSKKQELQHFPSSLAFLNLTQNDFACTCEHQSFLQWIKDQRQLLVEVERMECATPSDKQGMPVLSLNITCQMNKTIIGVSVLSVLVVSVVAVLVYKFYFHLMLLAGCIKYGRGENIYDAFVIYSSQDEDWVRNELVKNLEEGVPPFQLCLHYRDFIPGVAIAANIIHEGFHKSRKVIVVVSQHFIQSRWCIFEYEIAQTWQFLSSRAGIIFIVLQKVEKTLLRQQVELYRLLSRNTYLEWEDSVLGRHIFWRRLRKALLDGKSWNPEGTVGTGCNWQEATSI

SMILES: CCN(CC)CCCC(C)Nc1ccnc2cc(Cl)ccc12.O=P(O)(O)O.O=P(O)(O)O (stereo not drawn) [Chloroquine phosphate, 7-chloro-4-[[4-(diethylamino)-1-methylbutyl]amino]quinoline phosphate (1:2)]
tolerability of intravenous infusion [1]: without complication

inhibition of CpG-induced Src family kinase activation [2]: does not inhibit
SMILES: CCN(CC)CCCC(C)Nc1ccnc2cc(Cl)ccc12 (stereo not drawn) [Chloroquine]

SMILES: CCN(CC)C(=S)SSC(=S)N(CC)CC [Disulfiram, 1-(diethylthiocarbamoyldisulfanyl)-N,N-diethyl-methanethioamide]
proteasomal activity [3]: inhibits proteasomal activity
inhibition of aldehyde dehydrogenase [4]: inhibits

inhibition of Toll-like receptor 4 [5]: inhibitor
SMILES: Cl.Cl.Nc1ccccc1Oc1ccc2c(N)nsc2c1 [Example M62812, 3-amino-6-(2-aminophenoxy)-1,2-benzisothiazole dihydrochloride]

SMILES: Cc1nc(Nc2ncc(C(=O)Nc3c(C)cccc3Cl)s2)cc(N2CCN(CCO)CC2)n1.O [dasatinib, N-(2-chloro-6-methylphenyl)-2-[[6-[4-(2-hydroxyethyl)-1-piperazinyl]-2-methyl-4-pyrimidinyl]amino]-5-thiazolecarboxamide, monohydrate]
inhibition of Epha1 [6]: inhibits
